Each molecule was assayed on HCT116 colon cancer cells (assay: KSP Cellular Assay (percent of cells staining positive for Phos-Histone H3 / Phos-MPM2)). Conditions: Homo sapiens, HCT-116, 16 h, Table 101; HCT116 cells, 16 hours with drug; read-out: ED50 (nM) Range.
Assay type: cell-based
Method: HCT116 colon cancer cells were grown in DMEM:F12 media with 10% heat inactivated FBS at 37 degrees with 5% CO2. Cells were plated at 7,500 cells per well in PDL coated 384-well tissue culture plates. 6 hours later media was removed and new media containing drug was added. Cells were incubated with drug for 16 hours. All further steps were performed at room temperature in the dark. Cells were fixed with 25 ul/well Prefer fixation solution plus 250 nM Hoechst dye and incubated for 30 minutes. The fixation solution was removed and cells were washed with PBS. Cells were then permeabilized with 25 ul/well 0.2% Triton-X in PBS and incubated for 10 minutes. Cells were washed with PBS and then incubated with 25 ul/well PBS containing 3% FBS for 30 minutes. Cells were then stained overnight at 4 degrees with 25 ul/well antibody solution in PBS plus 3% FBS. Antibodies used were Phos-Histone H3 (ser10)-Alexa Flur 488 Conjugate and Phos-MPM2 Texas Red Conjugate. Cells were washed with PBS and then immunofluorescence images captured with HT Pathway microscope. The percent of cells staining positive was calculated and EC50 values for the compounds of the invention that were tested were determined using Excel XLfit.
EC50 Determinations: Dose-response curves were plotted from inhibition data generated each in duplicate, from 8 point serial dilutions of inhibitory compounds. Concentration of compound was plotted against enzyme activity (OD reading). To generate EC50 values, the dose-response curves were then fitted to a standard sigmoidal curve and EC50 values were derived by nonlinear regression analysis.

Row | Structure (SMILES) | EC50 [nM]
1 | CC(=O)N1N=C(c2cc(F)ccc2F)SC12CC1(CCNCC1)Oc1ccccc12 (centres unmarked) [compound 125] | > 1000

Same assay, conditions: Homo sapiens, HCT-116, 16 h, Table 401; HCT116 cells, 16 hours with drug; read-out: ED50 (nM) Range

Row | Structure (SMILES) | EC50 [nM]
2 | N[C@H](C(=O)N1N=C(c2cc(F)ccc2F)SC12CCOc1ccccc12)C1CC1 (some centres unmarked) [compound 419] | > 1000
3 | O=C(C1CCNCC1)N1N=C(c2cc(F)ccc2F)SC12CCOc1ccccc12 (centres unmarked) [compound 408] | > 1000
4 | C[C@H](O)C(=O)N1N=C(c2cc(F)ccc2F)SC12CCc1ccccc12 (some centres unmarked) [compound 436] | ≤ 500
5 | O=C(C1CCNCC1)N1N=C(c2cc(F)ccc2F)SC12CCc1ccccc12 (centres unmarked) [compound 422] | > 1000
6 | O=C(CO)N1N=C(c2cc(F)ccc2F)SC12CCOc1ccccc12 (centres unmarked) [compound 473] | 500 to 1000
7 | O=C(CCCN1CCCC1)N1N=C(c2cc(F)ccc2F)SC12CCOc1ccccc12 (centres unmarked) [compound 492] | ≤ 500
8 | O=C([C@@H]1CCCN1)N1N=C(c2cc(F)ccc2F)SC12CCCc1ccsc12 (some centres unmarked) [compound 427] | > 1000
9 | O=C(c1ccccn1)N1N=C(c2cc(F)ccc2F)SC12CCOc1ccccc12 (centres unmarked) [compound 432] | > 1000
10 | O=C(CC1CNC1)N1N=C(c2cc(F)ccc2F)SC12CCc1ccccc12 (centres unmarked) [compound 460] | ≤ 500
11 | O=C(Cc1cccnc1)N1N=C(c2cc(F)ccc2F)SC12CCc1ccccc12 (centres unmarked) [compound 450] | 500 to 1000
12 | O=C(C1CCCN1)N1N=C(c2cc(F)ccc2F)SC12CCCc1ccccc12 (centres unmarked) [compound 410] | > 1000
13 | CN1CCC(C(=O)N2N=C(c3cc(F)ccc3F)SC23CCCc2ccsc23)CC1 (centres unmarked) [compound 429] | > 1000
14 | O=C(CC1CCCNC1)N1N=C(c2cc(F)ccc2F)SC12CCOc1ccccc12 (centres unmarked) [compound 483] | 500 to 1000
15 | NCCCC(=O)N1N=C(c2cc(F)ccc2F)S[C@@]12CCOc1ccccc12 [compound 459] | > 500
16 | O=C([C@@H]1CCCN1)N1N=C(c2cc(F)ccc2F)SC12CCc1ccccc12 (some centres unmarked) [compound 423] | > 1000
17 | NCCC(=O)N1N=C(c2cc(F)ccc2F)SC12CCOc1ccccc12 (centres unmarked) [compound 433] | 500 to 1000

Same assay, conditions: Homo sapiens, HCT-116, 16 h, Table 801; HCT116 cells, 16 hours with drug; read-out: EC50 (nM) Range

Row | Structure (SMILES) | EC50 [nM]
18 | CC(=O)N1N=C(c2cc(F)ccc2F)S[C@@]12c1ccccc1OC[C@H]2CCNO [compound 813] | ≤ 500
19 | CC(=O)N1N=C(c2cc(F)ccc2F)S[C@@]12c1cc(F)c(F)cc1OC[C@H]2CCN [compound 807] | ≤ 500

Same assay, conditions: Homo sapiens, HCT-116, 16 h, table of Example 901; HCT116 cells, 16 hours with drug; read-out: EC50 (nM) Range

Row | Structure (SMILES) | EC50 [nM]
20 | CC(=O)N1N=C(c2cc(F)ccc2F)S[C@@]12c1ccccc1OC[C@@H]2CC#N [compound 902] | ≤ 500

Same assay, conditions: Homo sapiens, HCT-116, 16 h, table of Example 1004; HCT116 cells, 16 hours with drug; read-out: EC50 (nM) Range

Row | Structure (SMILES) | EC50 [nM]
21 | CC(=O)N1N=C(c2cc(F)ccc2F)S[C@@]12c1ccccc1OC[C@H]2CCCN [compound 1004] | ≤ 500

Same assay, conditions: Homo sapiens, HCT-116, 16 h, table of Example 1801 (headed Table 1201); HCT116 cells, 16 hours with drug; read-out: EC50 (nM) Range

Row | Structure (SMILES) | EC50 [nM]
22 | CC(=O)N1N=C(c2ccc(F)cc2F)S[C@@]12c1cc(F)ccc1OC[C@H]2CCN [compound 1819] | ≤ 500
23 | CC(=O)N1N=C(c2cccc(C(F)(F)F)c2)S[C@]12c1ccccc1OC[C@@H]2CCN [compound 1817] | > 1000
24 | CC(=O)N1N=C(c2cc(F)cc(F)c2)S[C@]12c1ccccc1OC[C@@H]2CCN [compound 1818] | > 1000

Same assay, conditions: Homo sapiens, HCT-116, 16 h, table of Example 1901; HCT116 cells, 16 hours with drug; read-out: EC50 (nM) Range

Row | Structure (SMILES) | EC50 [nM]
25 | COCCOCC(=O)N1N=C(c2cc(F)ccc2F)S[C@]12c1cc(F)cc(F)c1OC[C@@H]2CCN [compound 1912] | > 1000
26 | COCCOCC(=O)N1N=C(c2cc(F)ccc2F)S[C@@]12c1ccccc1OC[C@H]2CCN [compound 1909] | ≤ 500

Same assay, conditions: Homo sapiens, HCT-116, 16 h, table of Example 2001; HCT116 cells, 16 hours with drug; read-out: EC50 (nM) Range

Row | Structure (SMILES) | EC50 [nM]
27 | CO[C@@H](C)C(=O)N1N=C(c2cc(F)ccc2F)S[C@]12c1ccccc1OC[C@@H]2CCN [compound 2007] | ≤ 500
28 | NCC[C@H]1COc2ccccc2[C@]12SC(c1cc(F)ccc1F)=NN2C(=O)C(F)F [compound 2005] | ≤ 500
29 | COCC(=O)N1N=C(c2cc(F)ccc2F)S[C@@]12c1ccccc1OC[C@H]2CCN [compound 2004] | ≤ 500

Same assay, conditions: Homo sapiens, HCT-116, 16 h, table of Example 2101; HCT116 cells, 16 hours with drug; read-out: EC50 (nM) Range

Row | Structure (SMILES) | EC50 [nM]
30 | CCOC(=O)N1N=C(c2cc(F)ccc2F)S[C@@]12c1ccccc1OC[C@H]2CCN [compound 2103] | > 1000
31 | CCOC(=O)N1N=C(c2cc(F)ccc2F)S[C@]12c1cc(F)ccc1OC[C@@H]2CCN [compound 2102] | > 1000

Same assay, conditions: Homo sapiens, HCT-116, 16 h, table of Example 2501; HCT116 cells, 16 hours with drug; read-out: EC50 (nM) Range

Row | Structure (SMILES) | EC50 [nM]
32 | CC(=O)N1N=C(c2cc(F)ccc2F)S[C@]12c1ccccc1NC[C@@H]2CCO [compound 2501] | ≤ 500

Reference: patent publication US8796460B2, “Compounds for inhibiting KSP kinesin activity” (Mercky Sharp & Dohme Corp., priority 2007, dated 2014)
